Data taken from publication PMC12138102 (Acta Pharmaceutica Sinica. B, 2025).

What was measured:
eqBuChE = eqBuChE (Equus caballus, UniProt P81908); assay: BuChE inhibition, Ellman's assay; assay type: biochemical, equine; details: for IC50: IC50 ± SD eqBuChE; for SI: Selectivity Index, eeAChE and eqBuChE
eeAChE = eeAChE (Electrophorus electricus, UniProt O42275); assay: AChE inhibition, Ellman's assay; assay type: biochemical
huBuChE = huBuChE (Homo sapiens, UniProt P06276); assay: BuChE inhibition, Ellman's assay; assay type: biochemical; details: for SI: Selectivity Index, huAChE and huBuChE
Sequence of huBuChE (P06276 29-602): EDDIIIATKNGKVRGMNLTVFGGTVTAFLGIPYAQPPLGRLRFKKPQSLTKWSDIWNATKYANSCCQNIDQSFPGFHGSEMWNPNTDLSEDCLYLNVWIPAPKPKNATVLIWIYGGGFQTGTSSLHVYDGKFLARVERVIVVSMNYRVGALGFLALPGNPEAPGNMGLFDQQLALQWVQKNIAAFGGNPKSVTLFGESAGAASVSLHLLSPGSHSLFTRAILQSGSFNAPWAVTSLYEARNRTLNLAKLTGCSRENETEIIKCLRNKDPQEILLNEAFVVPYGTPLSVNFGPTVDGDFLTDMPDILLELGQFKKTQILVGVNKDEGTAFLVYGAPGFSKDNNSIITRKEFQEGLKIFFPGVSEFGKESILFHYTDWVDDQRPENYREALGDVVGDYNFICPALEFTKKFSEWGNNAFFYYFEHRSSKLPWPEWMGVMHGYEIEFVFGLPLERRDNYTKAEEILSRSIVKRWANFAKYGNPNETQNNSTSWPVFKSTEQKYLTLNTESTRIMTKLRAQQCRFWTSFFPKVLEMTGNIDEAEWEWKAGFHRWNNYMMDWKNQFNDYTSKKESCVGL

huAChE = huAChE (Homo sapiens, UniProt P22303); assay: AChE inhibition, Ellman's assay; assay type: biochemical
Sequence of huAChE (P22303 32-617 isoform P22303-2 limits assumed): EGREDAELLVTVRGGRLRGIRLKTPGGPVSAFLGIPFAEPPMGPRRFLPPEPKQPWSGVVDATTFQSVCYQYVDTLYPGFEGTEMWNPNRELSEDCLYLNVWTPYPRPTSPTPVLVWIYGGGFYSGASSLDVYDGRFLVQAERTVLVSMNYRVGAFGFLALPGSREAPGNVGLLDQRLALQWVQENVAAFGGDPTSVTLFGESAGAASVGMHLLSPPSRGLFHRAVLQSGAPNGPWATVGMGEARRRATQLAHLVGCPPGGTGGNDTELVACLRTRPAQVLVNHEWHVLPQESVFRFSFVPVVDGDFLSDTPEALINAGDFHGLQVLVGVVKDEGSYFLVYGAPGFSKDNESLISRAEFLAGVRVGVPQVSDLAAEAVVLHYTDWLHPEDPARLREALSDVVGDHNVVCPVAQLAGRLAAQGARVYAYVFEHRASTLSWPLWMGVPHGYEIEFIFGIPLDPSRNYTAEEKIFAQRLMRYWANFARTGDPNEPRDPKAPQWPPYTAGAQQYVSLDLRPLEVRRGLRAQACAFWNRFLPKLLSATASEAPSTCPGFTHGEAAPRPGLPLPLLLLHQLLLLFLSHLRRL

[1] = system: APP/PS1 double-transgenic mice; assay: APP/PS1 mice, Morris Water Maze and tissue analyses; assay type: in vivo
scopolamine-induced mice = assay: Scopolamine-induced mice dysmnesia, step-down passive avoidance task; assay type: in vivo, Kunming mice
[2] = system: AlCl3-induced zebrafish AD model; assay: AlCl3-induced zebrafish AD model; assay type: in vivo; details: donepezil 3.0 μg/mL
BuChE = assay: Reversibility of BuChE inhibition; assay type: biochemical; details: 0.1 × IC50, 120 min
[3] = plasma, donepezil 2.0 mg/kg, 8e 2.6 mg/kg

Sequence of eqBuChE (P81908 whole entry): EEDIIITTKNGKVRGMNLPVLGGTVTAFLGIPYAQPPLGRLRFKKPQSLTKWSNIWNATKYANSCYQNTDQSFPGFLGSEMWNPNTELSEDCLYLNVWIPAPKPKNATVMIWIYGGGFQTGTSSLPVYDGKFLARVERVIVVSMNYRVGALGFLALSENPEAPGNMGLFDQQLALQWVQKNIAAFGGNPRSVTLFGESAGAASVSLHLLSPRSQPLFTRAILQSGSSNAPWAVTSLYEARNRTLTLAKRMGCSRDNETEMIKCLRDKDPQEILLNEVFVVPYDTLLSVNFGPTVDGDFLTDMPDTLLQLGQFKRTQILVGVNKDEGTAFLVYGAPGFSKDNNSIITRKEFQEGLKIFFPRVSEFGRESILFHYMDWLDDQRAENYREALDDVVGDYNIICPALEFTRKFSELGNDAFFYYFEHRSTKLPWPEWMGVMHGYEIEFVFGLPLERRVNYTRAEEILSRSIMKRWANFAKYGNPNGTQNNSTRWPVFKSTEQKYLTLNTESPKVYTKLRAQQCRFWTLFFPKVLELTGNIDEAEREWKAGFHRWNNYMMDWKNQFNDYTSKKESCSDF
Sequence of eeAChE (O42275 24-633): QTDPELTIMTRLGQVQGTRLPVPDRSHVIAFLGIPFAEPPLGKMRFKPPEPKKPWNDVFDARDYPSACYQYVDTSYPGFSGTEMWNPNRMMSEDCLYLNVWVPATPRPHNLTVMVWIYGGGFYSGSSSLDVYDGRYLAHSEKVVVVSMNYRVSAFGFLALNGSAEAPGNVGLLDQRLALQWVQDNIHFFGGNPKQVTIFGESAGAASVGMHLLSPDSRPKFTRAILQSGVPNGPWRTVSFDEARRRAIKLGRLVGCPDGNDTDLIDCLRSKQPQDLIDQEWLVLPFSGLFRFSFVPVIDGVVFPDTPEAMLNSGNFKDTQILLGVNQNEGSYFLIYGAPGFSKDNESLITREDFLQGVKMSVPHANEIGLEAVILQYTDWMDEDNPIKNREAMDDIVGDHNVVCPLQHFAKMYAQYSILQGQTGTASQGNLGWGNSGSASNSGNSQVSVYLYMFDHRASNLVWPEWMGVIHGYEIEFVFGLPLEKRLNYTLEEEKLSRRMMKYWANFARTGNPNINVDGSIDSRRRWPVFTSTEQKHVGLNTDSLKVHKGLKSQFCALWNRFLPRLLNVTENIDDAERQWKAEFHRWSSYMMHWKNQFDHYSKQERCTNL

Row | SMILES | IC50 (eqBuChE) [µM] | SI (eqBuChE) | IC50 (eeAChE) [µM] | further results
1 | COc1cc(C(=O)N2CCC(Cc3ccccc3)CC2)ccc1OCCCCN1CCC(Cc2ccccc2)CC1 [7a] | 0.66 ± 0.03 | 8.9 | 5.9 ± 0.36 | –
2 | COc1cc(C(=O)N2CCC(Cc3ccccc3)CC2)ccc1OCCCCN1CCN(Cc2ccccc2)CC1 [7b] | 3.1 ± 0.12 | 2.5 | 7.9 ± 0.25 | –
3 | COc1cc(C(=O)N2CCC(Cc3ccccc3)CC2)ccc1OCCCCN1CCC(CCCc2ccccc2)CC1 [7c] | 1.1 ± 0.06 | 3.1 | 3.4 ± 0.13 | –
4 | COc1cc(C(=O)N2CCC(Cc3ccccc3)CC2)ccc1OCCCCN1CCc2ccccc2C1 [7d] | 0.85 ± 0.02 | 3.6 | 3.1 ± 0.15 | –
5 | CCN(CCCCOc1ccc(C(=O)N2CCC(Cc3ccccc3)CC2)cc1OC)Cc1ccccc1 [7e] | 0.47 ± 0.05 | 6.0 | 2.8 ± 0.13 | IC50 (huBuChE): 0.87 ± 0.23 µM; SI (huBuChE): 4.5; IC50 (huAChE): 3.9 ± 0.44 µM
6 | CCN(CC)CCCCOc1ccc(C(=O)N2CCC(Cc3ccccc3)CC2)cc1OC [7f] | 6.4 ± 0.24 | 1.3 | 8.6 ± 0.32 | –
7 | COc1cc(C(=O)N2CCC(Cc3ccccc3)CC2)ccc1OCCCCN1CC(C)CC(C)C1 (stereo not shown) [7g] | 3.7 ± 0.24 | 0.6 | 2.3 ± 0.12 | –
8 | CCN(CCCCOc1c(OC)cc(C(=O)NC2CCN(Cc3ccccc3)CC2)cc1OC)Cc1ccccc1 [7i] | 2.6 ± 0.12 | 2.2 | 5.7 ± 0.03 | –
9 | CCN(CCCCOc1c(OC)cc(C(=O)N2CCN(c3ccc(F)cc3)CC2)cc1OC)Cc1ccccc1 [7j] | 6.3 ± 0.32 | 1.1 | 6.9 ± 0.04 | –
10 | COc1cc(CCC(=O)N2CCC(Cc3ccccc3)CC2)ccc1OCCCCN1CCC(Cc2ccccc2)CC1 [8a] | 0.093 ± 0.005 | 18 | 1.7 ± 0.01 | IC50 (huBuChE): 0.16 ± 0.43 µM; SI (huBuChE): 37; IC50 (huAChE): 5.9 ± 0.26 µM
11 | COc1cc(CCC(=O)N2CCC(Cc3ccccc3)CC2)ccc1OCCCCN1CCN(Cc2ccccc2)CC1 [8b] | 3.3 ± 0.13 | 1.8 | 5.8 ± 0.35 | –
12 | COc1cc(CCC(=O)N2CCC(Cc3ccccc3)CC2)ccc1OCCCCN1CCC(CCCc2ccccc2)CC1 [8c] | 0.063 ± 0.005 | 67 | 4.2 ± 0.26 | IC50 (huBuChE): 0.082 ± 0.007 µM; SI (huBuChE): 82; IC50 (huAChE): 6.7 ± 0.16 µM
13 | COc1cc(CCC(=O)N2CCC(Cc3ccccc3)CC2)ccc1OCCCCN1CCc2ccccc2C1 [8d] | 0.087 ± 0.002 | 71 | 6.2 ± 0.12 | IC50 (huBuChE): 0.097 µM; SI (huBuChE): 89; IC50 (huAChE): 8.6 ± 0.33 µM
14 | CCN(CC)CCCCOc1ccc(CCC(=O)N2CCC(Cc3ccccc3)CC2)cc1OC [8f] | 0.28 ± 0.02 | 30 | 8.4 ± 0.53 | –
15 | COc1cc(CCC(=O)N2CCC(Cc3ccccc3)CC2)ccc1OCCCCN1CC(C)CC(C)C1 (stereo not shown) [8g] | 0.75 ± 0.02 | 8.7 | 6.5 ± 0.33 | –
16 | COc1cc(CCC(=O)N2CCC(Cc3ccccc3)CC2)ccc1OCCCCN1CCC(c2ccccc2)CC1 [8h] | 0.13 ± 0.08 | 36 | 4.7 ± 0.28 | IC50 (huBuChE): 0.19 ± 0.19 µM; SI (huBuChE): 36; IC50 (huAChE): 6.9 ± 0.14 µM
17 | COc1cc(CCC(=O)N2CCC(Cc3ccccc3)CC2)ccc1OCCCCN1CCC(C(=O)c2ccc(F)cc2)CC1 [8j] | 0.31 ± 0.12 | 16 | 4.9 ± 0.18 | –
18 | COc1cc(CCC(=O)N2CCC(Cc3ccccc3)CC2)ccc1OCCCCN1CCC(c2noc3ccccc23)CC1 [8k] | 0.25 ± 0.02 | 22 | 5.5 ± 0.23 | –
19 | COc1cc(CCC(=O)N2CCC(Cc3ccccc3)CC2)ccc1OC(=O)CCCCN1CCC(Cc2ccccc2)CC1 [9a] | 0.82 ± 0.03 | 8.7 | 7.1 ± 0.15 | –
20 | COc1cc(CCC(=O)N2CCC(Cc3ccccc3)CC2)ccc1OC(=O)CCCCN1CCN(Cc2ccccc2)CC1 [9b] | 1.7 ± 0.06 | 1.1 | 1.9 ± 0.11 | –
21 | COc1cc(CCC(=O)N2CCC(Cc3ccccc3)CC2)ccc1OC(=O)CCCCN1CCC(CCCc2ccccc2)CC1 [9c] | 0.73 ± 0.23 | 11 | 8.1 ± 0.43 | –
22 | CCN(CCOc1ccc(CCC(=O)N2CCC(Cc3ccccc3)CC2)cc1OC)Cc1ccccc1 [10a] | 0.22 ± 0.03 | 16 | 3.6 ± 0.02 | –
23 | CCN(CCCOc1ccc(CCC(=O)N2CCC(Cc3ccccc3)CC2)cc1OC)Cc1ccccc1 [10b] | 0.068 ± 0.005 | 128 | 8.7 ± 0.01 | IC50 (huBuChE): 0.091 ± 0.008 µM; SI (huBuChE): 65; IC50 (huAChE): 5.9 ± 0.26 µM
24 | CCN(CCCCCOc1ccc(CCC(=O)N2CCC(Cc3ccccc3)CC2)cc1OC)Cc1ccccc1 [10c] | 0.077 ± 0.002 | 81 | 6.2 ± 0.12 | IC50 (huBuChE): 0.11 µM; SI (huBuChE): 78; IC50 (huAChE): 8.6 ± 0.33 µM
25 | CCN(CCCCCCOc1ccc(CCC(=O)N2CCC(Cc3ccccc3)CC2)cc1OC)Cc1ccccc1 [10d] | 0.12 ± 0.003 | 38 | 4.6 ± 0.03 | –
26 | CCN(CCCCCCCCCOc1ccc(CCC(=O)N2CCC(Cc3ccccc3)CC2)cc1OC)Cc1ccccc1 [10e] | 0.28 ± 0.02 | 30 | 8.4 ± 0.53 | –
27 | CCN(CCCCCCCCCCOc1ccc(CCC(=O)N2CCC(Cc3ccccc3)CC2)cc1OC)Cc1ccccc1 [10f] | 0.59 ± 0.08 | 8.0 | 4.7 ± 0.28 | –
28 | COc1cc2c(cc1OC)C(=O)C(CC1CCN(Cc3ccccc3)CC1)C2 (stereo not shown) [Donepezil] | – | – | – | ACh levels ([1]; ELISA, cerebral cortex): remarkable increase; Aβ1–42 levels ([1]; ELISA, cerebral cortex): significantly reduced; IL-1β levels ([1]; ELISA, cerebral cortex): significantly reduced; IL-6 levels ([1]; ELISA, cerebral cortex): significantly reduced; TNF-α levels ([1]; ELISA, cerebral cortex): significantly reduced; neuronal abnormalities within cerebral cortex and hippocampus ([1]; HE staining, donepezil 2 mg/kg, 8e 2.6 mg/kg): marked decrease; escape latency ([1]; MWM, vs model group): significantly decreased; Aβ1–42 levels ([1]; immunofluorescence staining, cerebral cortex, donepezil 2.0 mg/kg, 8e 2.6 mg/kg): significant reduction; TG levels ([1]; plasma): significant decrease; LDL-c levels [1, 3]: significantly reduced; TC levels [1, 3]: significantly reduced; latency time (scopolamine-induced mice; 5.0 mg/kg): 163.87 s; number of errors (scopolamine-induced mice; 5.0 mg/kg): 0.1; neuronal apoptosis in the hippocampus (scopolamine-induced mice; TUNEL staining, donepezil 5.0 mg/kg, 8e 6.5 mg/kg): significantly reduced; levels of IL-1β, IL-6, and TNF-α in the cerebral cortex (scopolamine-induced mice; immunohistochemistry, donepezil 5.0 mg/kg, 8e 6.5 mg/kg): significant reduction; number of apoptotic cells ([2]; HE staining, 8e 0.1, 0.25, and 0.5 μg/mL): significantly reduced; swimming distance/swimming speed ([2]; 8e 0.1 and 0.25 μg/mL): significantly increased; reaction capacity ([2]; 8e 0.1 and 0.25 μg/mL, transition from dark to light): significantly enhanced
29 | CCN(C)C(=O)Oc1cccc([C@H](C)N(C)C)c1 [Rivastigmine] | – | – | – | recovery of BuChE activity / reversibility (BuChE): remained relatively unchanged
